Laboratory results as given in patent US10688103B2, “Methods for treating hypersomnia” (BALANCE THERAPEUTICS, INC., priority 2014, dated 2020).

Experiments:
[1] = tested on: patient diagnosed with primary hypersomnia; assay: Epworth Sleepiness Scale (ESS) in hypersomnia patients; format: in vivo, human
Description: In some embodiments, total scores in the ESS range from 0 to 24. A skilled artisan will recognize that in the ESS scores at the lower end (towards 0) of the scale indicate an improvement in a subject's hypersomnia. In some embodiments, scores of 10 and above indicate significant hypersomnia symptoms in a subject. In some embodiments, changes of 2-3 points in the ESS indicate clinically meaningful improvements in the subject's hypersomnia.
(§1) The patient was selected for PTZ treatments based on a clinical diagnosis of primary hypersomnia and the presence of an elevated level of an endogenous positive GABAA receptor allosteric modulator in the cerebrospinal fluid (CSF) of the subject relative to the CSF of a subject not having hypersomnia. The patient's sleepiness was scored according to the Epworth Sleepiness Scale (ESS), the Functional Outcomes of Sleep Questionnaire (FOSQ) Total Score, and the Multidimensional Fatigue Inventory (MFI). Additional clinical parameters recorded during the course of PTZ treatment included the Clinical Global Impression of Severity (CGI-S), the Clinical Global Impression of Change (CGI-C), the Beck Depression Inventory (BDI-II) Total Score and the patient's reported feelings of fogginess.
(§2) PTZ was orally administered to the patient twice daily at doses of 100 mg in liquid form in a TANG™ brand juice.
(§3) The patients were selected for PTZ treatments and evaluated as described in Example 2. PTZ was orally administered in liquid form in a TANG™ brand juice.
(§4) The patients were first evaluated while receiving flumazenil (Patient 1) or clarithromycin (Patient 2). […] A second evaluation of the two patients was performed at the end of the wash-out period. PTZ was then administered to Patient 1 for two weeks. During the first week, PTZ was administered to Patient 1 twice daily at doses of 100 mg, and during the second week PTZ was administered to Patient 1 at doses of 200 mg. PTZ was administered to Patient 2 for one week twice daily at doses of 100 mg. The patients were evaluated at the end of the first week (Patients 1 and 2) and at the end of the second week (Patient 1).

[2] = tested on: patient diagnosed with primary hypersomnia; assay: Functional Outcomes of Sleep Questionnaire (FOSQ) in hypersomnia patients; format: in vivo, human; parameters: key to FOSQ General Productivity Score / FOSQ Social Outcome Score / FOSQ Activity Level Score / FOSQ Vigilance Score / FOSQ Intimate Relationships and Sexual Activity Score: subscale score ~1-4; higher = improvement; key to Functional Outcomes of Sleep Questionnaire (FOSQ) Total Score: total score ~5-20; higher = improvement
Protocol: In some embodiments, the subject having hypersomnia is assessed using the Functional Outcomes of Sleep Questionnaire (FOSQ). The FOSQ can, e.g., be administered to the subject by asking the subject to rate the impact of a sleep disorder on a scale on activities within certain categories. In some embodiments, an FOSQ total score is determined. In some embodiments, the FOSQ total score is determined from one or more subscale scores (e.g., 1, 2, 3, 4, 5, 6, 7, 8, or more subscale scores). In some embodiments, the FOSQ subscale scores can include, e.g., a General Productivity Score, a Social Outcome Score, an Activity Level Score, a Vigilance Score, or an Intimate Relationship and Sexual Activity Score. A skilled artisan will recognize that higher FOSQ total or subscale scores indicate an improvement in the subject's hypersomnia. In some embodiments, FOSQ total scores can range from about 5 to 20. In some embodiments, FOSQ subscale scores can range from about 1 to 4.
as §1, §2, §3, §4

[3] = tested on: patient diagnosed with primary hypersomnia; assay: Multidimensional Fatigue Inventory (MFI) in hypersomnia patients; format: in vivo, human; parameters: key: MFI subscale score; lower scores indicate improvement
Protocol: In some embodiments, the subject having hypersomnia is assessed using the Multidimensional Fatigue Inventory (MFI). The MFI is typically a 20-item scale designed to evaluate five dimensions of fatigue. In some embodiments, a total MFI score is calculated. In some embodiments, the MFI can include one or more scales (e.g., 1, 2, 3, 4, 5, 6, 7, 8, or more scales). In some embodiments, the MFI scales can include, e.g., a General Fatigue Scale, a Physical Activity Scale, a Reduced Activity Scale, a Reduced Motivation Scale, or a Mental Fatigue Scale. Generally, in MFI lower scores indicate improvements in the subject's […].
as §1, §2, §3, §4

[4] = tested on: patient diagnosed with primary hypersomnia; assay: Clinical Global Impression of Severity (CGI-S) in hypersomnia patients; format: in vivo, human
Protocol: In some embodiments, the subject having hypersomnia is assessed using the Clinical Global Impression of Severity (CGI-S).
as §1, §2, §3, §4

[5] = tested on: patient diagnosed with primary hypersomnia; assay: Clinical Global Impression of Change (CGI-C) in hypersomnia patients; format: in vivo, human; settings: oral
Protocol: In some embodiments, the subject having hypersomnia is assessed using the Clinical Global Impression of Change (CGI-C).
as §1, §2, §3, §4

[6] = tested on: patient diagnosed with primary hypersomnia; assay: Beck Depression Inventory (BDI-II) in hypersomnia patients; format: in vivo, human
Protocol: In some embodiments, the subject having hypersomnia is assessed using the Beck Depression Inventory (current version, published in 1996, is the BDI-II). In some embodiments, a BDI-II total score is determined. In some embodiments, a BDI-II total score of 0-13 indicates minimal depression; a score of 14-19 indicates mild depression; a score of 20-28 indicates moderate depression; and a score of 29-63 indicates severe depression.
as §1, §2, §3, §4

[7] = tested on: patient diagnosed with primary hypersomnia; assay: Self-reported fogginess score in hypersomnia patients; format: in vivo, human; settings: oral, average of daily scores over one week
Protocol: In some embodiments, the subject having hypersomnia is assessed using a self-reported fogginess score. It is believed that the fogginess score can be used to evaluate a subject's clarity of thinking, which can reflect the subject's cognitive state. In some embodiments, the subject is asked how foggy the subject feels, e.g., since waking up in the morning or since midday. Scoring in a self-reported fogginess score can, e.g., be scored on a scale from 0 to 3.
as §1, §2, §3, §4

[8] = tested on: human patients diagnosed with primary hypersomnia; assay: Overall comparison of treatments of hypersomnia in human patients; format: in vivo; settings: Patients 1 and 2 diagnosed with primary hypersomnia
Protocol: This example describes the treatment of hypersomnia by administering PTZ to two human patients having hypersomnia who were treated with flumazenil (Patient 1) or clarithromycin (Patient 2) prior to the administration of PTZ.
as §3, §4

[9] = Patient 1 (patient of Example 2), after 1 week on PTZ 100 mg twice daily, oral
[10] = Patient 1, after 2 weeks on PTZ (200 mg twice daily in 2nd week), oral
[11] = Patient 2, after 1 week on PTZ 100 mg twice daily, oral
[12] = Patient of Example 2, after one week of PTZ treatment vs before treatment
[13] = Patient 1 (patient of Example 2), after 1 week on PTZ 100 mg twice daily
[14] = Patient 1, after 2 weeks on PTZ (200 mg twice daily in 2nd week)
[15] = Patient 2, after 1 week on PTZ 100 mg twice daily
[16] = Patient 1, before PTZ treatment, on flumazenil
[17] = Patient 2, before PTZ treatment, on clarithromycin

C1CCc2nnnn2CC1 [PTZ, pentylenetetrazol]
Epworth Sleepiness Scale (ESS) Total Score [1, 9]: 13 | Epworth Sleepiness Scale (ESS) Total Score [1, 10]: 9 | Epworth Sleepiness Scale (ESS) Total Score [1, 11]: 8 | ESS Total Score decrease [1, 12]: 6 points | FOSQ Activity Level Score [2, 9]: 2.9 | FOSQ General Productivity Score [2, 9]: 3.3 | FOSQ Intimate Relationships and Sexual Activity Score [2, 9]: 2.0 | FOSQ Social Outcome Score [2, 9]: 3.0 | FOSQ Vigilance Score [2, 9]: 3.1 | Functional Outcomes of Sleep Questionnaire (FOSQ) Total Score [2, 9]: 14.5 | FOSQ Activity Level Score [2, 10]: 2.9 | FOSQ General Productivity Score [2, 10]: 3.7 | FOSQ Intimate Relationships and Sexual Activity Score [2, 10]: 3.0 | FOSQ Social Outcome Score [2, 10]: 3.5 | FOSQ Vigilance Score [2, 10]: 3.7 | Functional Outcomes of Sleep Questionnaire (FOSQ) Total Score [2, 10]: 17.0 | FOSQ Activity Level Score [2, 11]: 3.4 | FOSQ General Productivity Score [2, 11]: 3.4 | FOSQ Intimate Relationships and Sexual Activity Score [2, 11]: 4.0 | FOSQ Social Outcome Score [2, 11]: 3.0 | FOSQ Vigilance Score [2, 11]: 2.9 | Functional Outcomes of Sleep Questionnaire (FOSQ) Total Score [2, 11]: 16.5 | FOSQ Total Score increase [2, 12]: 8 points | Multidimensional Fatigue Inventory (MFI) General Fatigue Scale [3, 9]: 18 | Multidimensional Fatigue Inventory (MFI) Mental Fatigue Scale [3, 9]: 7 | Multidimensional Fatigue Inventory (MFI) Physical Fatigue Scale [3, 9]: 14 | Multidimensional Fatigue Inventory (MFI) Reduced Activity Scale [3, 9]: 16 | Multidimensional Fatigue Inventory (MFI) Reduced Motivation Scale [3, 9]: 9 | Multidimensional Fatigue Inventory (MFI) General Fatigue Scale [3, 10]: 15 | Multidimensional Fatigue Inventory (MFI) Mental Fatigue Scale [3, 10]: 8 | Multidimensional Fatigue Inventory (MFI) Physical Fatigue Scale [3, 10]: 14 | Multidimensional Fatigue Inventory (MFI) Reduced Activity Scale [3, 10]: 16 | Multidimensional Fatigue Inventory (MFI) Reduced Motivation Scale [3, 10]: 11 | Multidimensional Fatigue Inventory (MFI) General Fatigue Scale [3, 11]: 13 | Multidimensional Fatigue Inventory (MFI) Mental Fatigue Scale [3, 11]: 6 | Multidimensional Fatigue Inventory (MFI) Physical Fatigue Scale [3, 11]: 7 | Multidimensional Fatigue Inventory (MFI) Reduced Activity Scale [3, 11]: 6 | Multidimensional Fatigue Inventory (MFI) Reduced Motivation Scale [3, 11]: 7 | Clinical Global Impression of Severity (CGI-S) [4, 9]: 5 | Clinical Global Impression of Severity (CGI-S) [4, 10]: 4 | Clinical Global Impression of Severity (CGI-S) [4, 11]: 3 | Clinical Global Impression of Change (CGI-C) [5, 13]: 3 | Clinical Global Impression of Change (CGI-C) [5, 14]: 2 | Clinical Global Impression of Change (CGI-C) [5, 15]: 2 | Beck Depression Inventory (BDI-II) Total Score [6, 9]: 8 | Beck Depression Inventory (BDI-II) Total Score [6, 10]: 5 | Beck Depression Inventory (BDI-II) Total Score [6, 11]: 0 | How foggy have you felt since midday? [7, 13]: 0.1 | How foggy have you felt since waking up this morning? [7, 13]: 1.1 | How foggy have you felt since midday? [7, 14]: 0.7 | How foggy have you felt since waking up this morning? [7, 14]: 1.0 | How foggy have you felt since midday? [7, 15]: 1.2 | How foggy have you felt since waking up this morning? [7, 15]: 2.1 | Efficacy in the treatment of hypersomnia relative to flumazenil and clarithromycin [8]: superior efficacy

CCOC(=O)c1ncn2c1CN(C)C(=O)c1cc(F)ccc1-2 [Flumazenil, flumazenil]
Epworth Sleepiness Scale (ESS) Total Score [1, 16]: 12 | FOSQ Activity Level Score [2, 16]: 1.4 | FOSQ General Productivity Score [2, 16]: 2.4 | FOSQ Intimate Relationships and Sexual Activity Score [2, 16]: 1.0 | FOSQ Social Outcome Score [2, 16]: 3.0 | FOSQ Vigilance Score [2, 16]: 2.3 | Functional Outcomes of Sleep Questionnaire (FOSQ) Total Score [2, 16]: 10 | Multidimensional Fatigue Inventory (MFI) General Fatigue Scale [3, 16]: 19 | Multidimensional Fatigue Inventory (MFI) Mental Fatigue Scale [3, 16]: 16 | Multidimensional Fatigue Inventory (MFI) Physical Fatigue Scale [3, 16]: 19 | Multidimensional Fatigue Inventory (MFI) Reduced Activity Scale [3, 16]: 19 | Multidimensional Fatigue Inventory (MFI) Reduced Motivation Scale [3, 16]: 12 | Clinical Global Impression of Severity (CGI-S) [4, 16]: 6 | Beck Depression Inventory (BDI-II) Total Score [6, 16]: 16

CC[C@H]1OC(=O)[C@H](C)[C@@H](O[C@H]2C[C@@](C)(OC)[C@@H](O)[C@H](C)O2)[C@H](C)[C@@H](O[C@@H]2O[C@H](C)C[C@H](N(C)C)[C@H]2O)[C@](C)(OC)C[C@@H](C)C(=O)[C@H](C)[C@@H](O)[C@]1(C)O [Clarithromycin, clarithromycin]
Epworth Sleepiness Scale (ESS) Total Score [1, 17]: 8 | FOSQ Activity Level Score [2, 17]: 2.3 | FOSQ General Productivity Score [2, 17]: 3.4 | FOSQ Intimate Relationships and Sexual Activity Score [2, 17]: 4.0 | FOSQ Social Outcome Score [2, 17]: 3.0 | FOSQ Vigilance Score [2, 17]: 2.1 | Functional Outcomes of Sleep Questionnaire (FOSQ) Total Score [2, 17]: 15 | Multidimensional Fatigue Inventory (MFI) General Fatigue Scale [3, 17]: 17 | Multidimensional Fatigue Inventory (MFI) Mental Fatigue Scale [3, 17]: 9 | Multidimensional Fatigue Inventory (MFI) Physical Fatigue Scale [3, 17]: 13 | Multidimensional Fatigue Inventory (MFI) Reduced Activity Scale [3, 17]: 9 | Multidimensional Fatigue Inventory (MFI) Reduced Motivation Scale [3, 17]: 13 | Clinical Global Impression of Severity (CGI-S) [4, 17]: 4 | Beck Depression Inventory (BDI-II) Total Score [6, 17]: 0
